Experimental data from patent US9133128B2, “Pyrazole derivatives as cannabinoid receptor 1 antagonists” (Research Triangle Institute, priority 2011, dated 2015).
Like-named read-outs stand apart in the source and are kept apart here.

How the values were obtained:
CB1 [1] = molecular target: T1, CB1 (Homo sapiens, UniProt P21554); experiment: Radioligand displacement of [3H]SR141716 at CB1; assay type: binding
T1 construct: expressed in transfected cells; host or cells: CHO-K1 (membranes)

CB1 [2] = molecular target: T1, CB1; experiment: Displacement of [3H]CP55940 in membranes of CHO-K1 cells over-expressing CB1; assay type: binding; conditions: for Binding Selectivity using CP55940 Displacement: CB2 Ki over CB1 Ki
CB2 = molecular target: T2, CB2 (Homo sapiens, UniProt P34972); experiment: Displacement of [3H]CP55940 in membranes of CHO-K1 cells over-expressing CB2; assay type: binding
T2 construct: expressed in transfected cells; host or cells: CHO-K1 (membranes)
T2 sequence (P34972 whole entry): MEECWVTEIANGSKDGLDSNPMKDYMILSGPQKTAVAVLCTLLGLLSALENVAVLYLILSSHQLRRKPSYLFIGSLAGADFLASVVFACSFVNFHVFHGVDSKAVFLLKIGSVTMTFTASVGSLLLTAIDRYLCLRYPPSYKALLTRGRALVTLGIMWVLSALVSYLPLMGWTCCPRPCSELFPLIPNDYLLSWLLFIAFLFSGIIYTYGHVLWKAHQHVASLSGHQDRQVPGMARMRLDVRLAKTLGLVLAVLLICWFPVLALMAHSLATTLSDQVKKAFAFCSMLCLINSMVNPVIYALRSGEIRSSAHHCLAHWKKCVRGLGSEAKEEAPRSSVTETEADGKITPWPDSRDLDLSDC
Protocol: All compounds were characterized by H^1 NMR and evaluated using a calcium mobilization assay. Each compound was pharmacologically characterized using a functional fluorescent CB1 activated Gαq16-coupled intracellular calcium mobilization assay in CHO-K1 cells as has been previously described and apparent affinity (Ke) values were determined. See Zhang et al., J. Med. Chem. 2010, 53, 7048, which is incorporated herein by reference. Further characterization of select compounds was performed using radioligand displacement of [3H]1 and equilibrium dissociation constant (Ki) values were determined. Selectivity of these compounds at CB1 versus CB2 was also determined by obtaining Ki values at either receptor using displacement of [3H]CP55940 in membranes of CHO-K1 cells over-expressing either receptor. Data reported are average values from 3-6 measurements.
Select compounds were chosen for further study in radioligand displacement assays using radiolabeled rimonobant, SR141716 ([^3H]1). […] Selectivity against the CB2 receptor was determined by comparing the compound displacement of radiolabeled CP55940, which is a cannabinoid known to act as a full agonist at both CB1 and CB2 receptors. In general, tested compounds were selective for CB1 over CB2.

CB1 [3] = molecular target: T1, CB1; experiment: CB1 activated Gαq16-coupled intracellular calcium mobilization assay in CHO-K1 cells (apparent affinity Ke); assay type: cell-based
[4] = Table 3, radioligand [3H]CP55940, read-out: Ki(μM) CB2 CP55940
[5] = Table 4, read-out: Ki (nM) v. [3H] SR141716 at CB1
[6] = Table 4, read-out: Ki (nM) v. [3H] CP55940 at CB1
[7] = Table 4, read-out: Ki (nM) v. [3H] CP55940 at CB2
[8] = Table 4, calcium mobilization, read-out: Ke (nM) at CB1
[9] = Table 5, calcium mobilization, read-out: Ke (nM) at CB1
[10] = Table 5, read-out: Ki (nM) v. [3H] CP55940 at CB1
[11] = Table 5, read-out: Ki (nM) v. [3H] CP55940 at CB2

T1 sequence (P21554 whole entry): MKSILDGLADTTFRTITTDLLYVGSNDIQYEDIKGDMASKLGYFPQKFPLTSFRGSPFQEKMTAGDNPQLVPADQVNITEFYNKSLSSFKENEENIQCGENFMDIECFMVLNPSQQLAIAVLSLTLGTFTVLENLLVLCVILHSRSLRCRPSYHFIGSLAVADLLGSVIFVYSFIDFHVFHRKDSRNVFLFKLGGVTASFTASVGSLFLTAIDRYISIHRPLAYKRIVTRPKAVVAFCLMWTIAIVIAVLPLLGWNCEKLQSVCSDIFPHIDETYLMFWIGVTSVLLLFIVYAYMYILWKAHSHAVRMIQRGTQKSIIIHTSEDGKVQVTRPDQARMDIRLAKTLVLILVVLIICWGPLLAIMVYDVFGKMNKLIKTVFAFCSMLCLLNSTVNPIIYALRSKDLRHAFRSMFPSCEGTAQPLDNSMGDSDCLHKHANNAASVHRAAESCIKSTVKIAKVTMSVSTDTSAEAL

SMILES	Binding Selectivity using CP55940 Displacement (CB1 [2]; Table 4)	Ki (CB1 [2]; [6])	Ki (CB2; [7])	Kb (CB1 [3]; [8])	other results
Cc1c(C(=O)NCC2CCC(CNS(C)(=O)=O)CC2)nn(-c2ccc(Cl)cc2Cl)c1-c1ccc(Cl)cc1 (mixture of isomers)	–	–	–	–	Ki (CB1 [1]; Table 3, radioligand [3H]SR141716, read-out: Ki(μM) CB1 SR141716): 0.008 µM; Ki (CB1 [2]; Table 3, radioligand [3H]CP55940, read-out: Ki(μM) CB1 CP55940): 0.036 µM; Ki (CB2; [4]): 0.96 µM
Cc1c(C(=O)NCC2CCC(CNS(N)(=O)=O)CC2)nn(-c2ccc(Cl)cc2Cl)c1-c1ccc(Cl)cc1 (mixture of isomers)	–	–	–	–	Ki (CB2; [4]): 1.79 µM
Cc1c(C(=O)N2CCC(C(N)=O)(c3ccccc3)CC2)nn(-c2ccc(Cl)cc2Cl)c1-c1ccc(Br)cc1 [Br, phenyl, CONH2, 1-{[5-(4-bromophenyl)-1-(2,4-dichlorophenyl)-4-methyl-1H-pyrazol-3-yl]carbonyl}-4-phenylpiperidine-4-carboxamide]	226.3	0.0145 µM	3.28 µM	–	Ki (CB1 [1]; [5]): 0.00267 µM
Cc1c(C(=O)N2CCC(NC(=O)NC(C)C)CC2)nn(-c2ccc(Cl)cc2Cl)c1-c1ccc(Cl)cc1 [Cl, H, NHC(O)NHCH(CH3)2, 1-(1-{[5-(4-Chlorophenyl)-1-(2,4-dichlorophenyl)-4-methyl-1H-pyrazol-3-yl]carbonyl}piperidin-4-yl)-3-(propan-2-yl)urea]	–	–	–	608 nM	–
Cc1c(C(=O)N2CCC(NC(=O)OC(C)(C)C)CC2)nn(-c2ccc(Cl)cc2Cl)c1-c1ccc(Cl)cc1 [Cl, H, NHC(O)O(t-butyl), tert-Butyl N-(1-{[5-(4-chlorophenyl)-1-(2,4-dichlorophenyl)-4-methyl-1H-pyrazol-3-yl]carbonyl}piperidin-4-yl)carbamate]	–	–	–	209 nM	–
Cc1c(C(=O)N2CCC(NS(C)(=O)=O)CC2)nn(-c2ccc(Cl)cc2Cl)c1-c1ccc(Cl)cc1 [Cl, H, NHS(O)2CH3, N-(1-{[5-(4-Chlorophenyl)-1-(2,4-dichlorophenyl)-4-methyl-1H-pyrazol-3-yl]carbonyl}piperidin-4-yl)methanesulfonamide]	–	–	–	146 nM	–
CCNC1(C(N)=O)CCN(C(=O)c2nn(-c3ccc(Cl)cc3Cl)c(-c3ccc(Cl)cc3)c2C)CC1 [Cl, NHC2H5, C(O)NH2, 1-{[5-(4-chlorophenyl)-1-(2,4-dichlorophenyl)-4-methyl-1H-pyrazol-3-yl]carbonyl}-4-(ethylamino)piperidine-4-carboxamide]	–	0.0784 µM	2.22 µM	–	Ki (CB1 [1]; [5]): 0.0346 µM
Cc1c(C(=O)N2CCC(N)(c3ccccc3)CC2)nn(-c2ccc(Cl)cc2Cl)c1-c1ccc(Cl)cc1 [Cl, phenyl, NH2, 1-{[5-(4-chlorophenyl)-1-(2,4-dichlorophenyl)-4-methyl-1H-pyrazol-3-yl]carbonyl}-4-phenylpiperidin-4-amine]	10.8	0.104 µM	1.13 µM	485 nM	Ki (CB1 [1]; [5]): 0.0305 µM
CC(=O)NC1(c2ccccc2)CCN(C(=O)c2nn(-c3ccc(Cl)cc3Cl)c(-c3ccc(Cl)cc3)c2C)CC1 [Cl, phenyl, NHC(O)CH3, N-(1-{[5-(4-chlorophenyl)-1-(2,4-dichlorophenyl)-4-methyl-1H-pyrazol-3-yl]carbonyl}-4-phenylpiperidin-4-yl)acetamide]	3.4	0.0626 µM	0.214 µM	201 nM	Ki (CB1 [1]; [5]): 0.0137 µM
CCCCCCNC(=O)NC1(c2ccccc2)CCN(C(=O)c2nn(-c3ccc(Cl)cc3Cl)c(-c3ccc(Cl)cc3)c2C)CC1 [Cl, phenyl, NHC(O)NH(C6H13), 1-(1-{[5-(4-chlorophenyl)-1-(2,4-dichlorophenyl)-4-methyl-1H-pyrazol-3-yl]carbonyl}-4-phenylpiperidin-4-yl)-3-hexylurea]	62.2	0.0388 µM	2.41 µM	–	–
Cc1c(C(=O)N2CCC(NC(=O)NC3CCCCC3)(c3ccccc3)CC2)nn(-c2ccc(Cl)cc2Cl)c1-c1ccc(Cl)cc1 [Cl, phenyl, NHC(O)NH(cyclohexyl), 3-(1-{[5-(4-chlorophenyl)-1-(2,4-dichlorophenyl)-4-methyl-1H-pyrazol-3-yl]carbonyl}-4-phenylpiperidin-4-yl)-1-cyclohexylurea]	25.3	0.792 µM	≥ 20 µM	–	–
CCCCNC(=O)NC1(c2ccccc2)CCN(C(=O)c2nn(-c3ccc(Cl)cc3Cl)c(-c3ccc(Cl)cc3)c2C)CC1 [Cl, phenyl, NHC(O)NHC4H9, 3-butyl-1-(1-{[5-(4-chlorophenyl)-1-(2,4-dichlorophenyl)-4-methyl-1H-pyrazol-3-yl]carbonyl}-4-phenylpiperidin-4-yl)urea]	178.1	0.0155 µM	2.76 µM	0.41 nM	–
Cc1c(C(=O)NC2CCN(C(N)=O)CC2)nn(-c2ccc(Cl)cc2Cl)c1-c1ccc(Cl)cc1 [NH2, 4-C-5-(4-chlorophenyl)-1-(2,4-dichlorophenyl)-4-methyl-1H-pyrazole-3-piperidine-1,4-diamido]	–	–	–	–	Kb (CB1 [3]; [9]): 4100 nM
Cc1c(C(=O)NC2CCN(C(=O)NC(C)C)CC2)nn(-c2ccc(Cl)cc2Cl)c1-c1ccc(Cl)cc1 [NH(isopropyl), 4-C-5-(4-Chlorophenyl)-1-(2,4-dichlorophenyl)-4-methyl-1H-pyrazole-3-1-N-(propan-2-yl)piperidine-1,4-diamido]	–	–	–	–	Binding Selectivity using CP55940 Displacement (CB1 [2]; Table 5): 175.7; Ki (CB1 [2]; [10]): 0.0979 µM; Ki (CB2; [11]): 17.2 µM
CCCCNC(=O)N1CCC(NC(=O)c2nn(-c3ccc(Cl)cc3Cl)c(-c3ccc(Cl)cc3)c2C)CC1 [NH(n-butyl), 1-N-Butyl-4-C-5-(4-chlorophenyl)-1-(2,4-dichlorophenyl)-4-methyl-1H-pyrazole-3-piperidine-1,4-diamido]	–	–	–	–	Ki (CB1 [2]; [10]): 0.149 µM; Ki (CB2; [11]): > 20 µM
CCNC(=O)N1CCC(NC(=O)c2nn(-c3ccc(Cl)cc3Cl)c(-c3ccc(Cl)cc3)c2C)CC1 [NHC2H5, 4-C-5-(4-chlorophenyl)-1-(2,4-dichlorophenyl)-4-methyl-1H-pyrazole-3-1-N-ethylpiperidine-1,4-diamido]	–	–	–	–	Binding Selectivity using CP55940 Displacement (CB1 [2]; Table 5): 79.0; Ki (CB1 [2]; [10]): 0.167 µM; Ki (CB2; [11]): 13.2 µM
CCOC(=O)N1CCC(NC(=O)c2nn(-c3ccc(Cl)cc3Cl)c(-c3ccc(Cl)cc3)c2C)CC1 [OC2H5, Ethyl 4-[5-(4-Chlorophenyl)-1-(2,4-dichlorophenyl)-4-methyl-1H-pyrazole-3-amido]piperidine-1-carboxylate]	–	–	–	–	Binding Selectivity using CP55940 Displacement (CB1 [2]; Table 5): 551.1; Ki (CB1 [2]; [10]): 0.0146 µM; Kb (CB1 [3]): 28.6 nM; Ki (CB2; [11]): 8.07 µM
CCCCOC(=O)N1CCC(NC(=O)c2nn(-c3ccc(Cl)cc3Cl)c(-c3ccc(Cl)cc3)c2C)CC1 [OC4H9, Butyl 4-[5-(4-chlorophenyl)-1-(2,4-dichlorophenyl)-4-methyl-1H-pyrazole-3-amido]piperidine-1-carboxylate]	–	–	–	–	Kb (CB1 [3]; [9]): 88 nM

Now from value to molecule, other results behind:

Binding Selectivity using CP55940 Displacement (CB1 [2]; Table 4)	Ki (CB1 [2]; [6])	Ki (CB2; [7])	Kb (CB1 [3]; [8])	SMILES	other results
38.7	0.00757 µM	0.293 µM	–	CCCNC(=O)NC1(c2ccccc2)CCN(C(=O)c2nn(-c3ccc(Cl)cc3Cl)c(-c3ccc(Cl)cc3)c2C)CC1 [Cl, phenyl, NHC(O)NHC3H7, 1-(1-{[5-(4-chlorophenyl)-1-(2,4-dichlorophenyl)-4-methyl-1H-pyrazol-3-yl]carbonyl}-4-phenylpiperidin-4-yl)-3-propylurea]	–
12.1	0.015 µM	0.182 µM	–	CCNC(=O)NC1(c2ccccc2)CCN(C(=O)c2nn(-c3ccc(Cl)cc3Cl)c(-c3ccc(Cl)cc3)c2C)CC1 [Cl, phenyl, NHC(O)NHCH2CH3, 1-(1-{[5-(4-chlorophenyl)-1-(2,4-dichlorophenyl)-4-methyl-1H-pyrazol-3-yl]carbonyl}-4-phenylpiperidin-4-yl)-3-ethylurea]	–
12.3	0.0674 µM	0.831 µM	–	Cc1c(C(=O)N2CCC(O)(c3ccccc3)CC2)nn(-c2ccc(Cl)cc2Cl)c1-c1ccc(Cl)cc1 [Cl, phenyl, OH, 1-{[5-(4-chlorophenyl)-1-(2,4-dichlorophenyl)-4-methyl-1H-pyrazol-3-yl]carbonyl}-4-hydroxy-4-phenylpiperidine]	Ki (CB1 [1]; [5]): 0.00963 µM
1.0	0.384 µM	0.4 µM	679 nM	Cc1c(C(=O)N2CCC(O)(c3ccccc3)CC2)nn(-c2ccc(Cl)cc2Cl)c1-c1ccc(N(C)C)cc1 [N(CH3)2, phenyl, OH, 1-{[1-(2,4-dichlorophenyl)-5-[4-(dimethylamino)phenyl]-4-methyl-1H-pyrazol-3-yl]carbonyl}-4-phenylpiperidin-4-ol]	Ki (CB1 [1]; [5]): 0.0725 µM
